Peptide text beside a SMILES is read from it. * marks the point of attachment. Lauroyl = CCCCCCCCCCCC(=O)*
Tests used:
Format in all cases: cell-based
pig erythrocytes = test system: pig erythrocytes
In short: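 Washed pig erythrocytes in PBS were mixed with 2-fold serial dilutions of peptide and incubated for 1 h at 37° C. Released hemoglobin in the supernatant was read at 570 nm, with PBS and 0.1% Triton X-100 as controls. MHC was the minimum concentration giving 5% hemolysis.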

E. faecium ATCC 27270 = test system: E. faecium ATCC 27270
In short: (§1)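 CLSI microbroth dilution; MHB; inoculum 5×10^5 CFU/mL from 0.5 McFarland suspension diluted 1:50; 2-fold compound series; 37° C., 18 h; MIC = lowest concentration without visible growth, checked at 590 nm.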

[1] = test system: E. coli CAN-ICU 61714 (gentamicin-resistant)
In short: as §1

[2] = test system: methicillin-susceptible Staphylococcus epidermidis CANWARD-2008 81388; details: methicillin-susceptible CANWARD-2008 81388
In short: as §1

`CCCCCCCCCCCC(=O)N1CCC[C@H]1C(=O)N[C@@H](CCCNC(=N)N)C(=O)N1CCC[C@H]1C(=O)N[C@@H](CCCNC(=N)N)C(=O)N1CCC[C@H]1C(=O)N[C@@H](CCCNC(=N)N)C(=O)N1CCC[C@H]1C(N)=O` [Compound C12-PRP, CH3(CH2)10CO-PRPRPRP-NH2] (Lauroyl-PRPRPRP-NH2) was tested, and the “MHC (minimum concentration that resulted in 5% red blood cell hemolysis)” value (pig erythrocytes) was > 512 µg/mL, the hemolysis (pig erythrocytes; red cells of porcine, 512 μg/mL) was 4.6±0.2% and the MIC (E. faecium ATCC 27270) was 128 µg/mL. For the same molecule, the MIC [1] was >128 µg/mL and the MIC [2] was 32 µg/mL.

From patent publication US20200407398A1, “Short Proline-Rich Lipopeptide Potentiates Minocycline and Rifampicin Against Multidrug-and Extensively Drug-Resistant Pseudomonas Aeruginosa” (priority 2018, published 2020)
